Patent US6930075B1, “Fatty acid-based herbicidal composition” (priority 1990, dated 2005)

Assays:
Assay in all cases: Greenhouse post-emergence spray, plant damage rating
Type in all cases: in vivo
Avena sativa (oats) = conditions: A. sativa, alone and combined
Protocol: (§1) Three species of weed, used in each test: Hypochoeris radicata (false dandelion), Sinapis, arvensis (wild mustard), and Avena sativa (oats), were grown in a greenhouse facility in 5.5 cm square pots using a potting soil mix comprising peat, vermiculite, sand, and 4-10-10 fertilizer. Water-soluble 20-20-20 fertilizer was used as a supplement for the plants as required. The plants were selected for use based on uniformity and quality and were potted separately. One plant per pot each of H. radicata (6–10 leaves) and S. arvensis (4–6 leaves) were used. Six to eight plants of A. sativa (2–4 leaves) were used per pot. After spraying with a herbicidal composition (as described below) the pots were arranged in a randomized complete block design in sub-irrigated watering trays. Six to ten replicates (pots) were used per treatment.
(§2) Herbicidal treatments were applied using a spray chamber fitted with a TeeJet 8006E flat fan nozzle (available from Spraying Systems Co., Wheaton, Ill.), calibrated to spray at a volume of 60 gpa at 40 psi. Treatment solutions were freshly prepared for each experiment. Plant damage was assessed at 10 to 14 days after treatment using a pre-transformed 0–10 rating scale (0 representing no damage, 10 representing plant death) in accordance with the procedure outlined in Statistical Methods in Agricultural Research, Little, T. M. et al, J. Wiley and Sons, 1975, pp. 119–120, 218.

[1] = test system: Hypochoeris radicata (false dandelion); conditions: H. radicata, alone and combined
Protocol: as §1, §2

[2] = test system: Sinapis arvensis (wild mustard); conditions: S. arvensis, alone and combined
Protocol: as §1, §2

[3] = Table 3 set 1: Round-Up 0.1%, Potassium pelargonate 0.1%
[4] = Table 3 set 2: Round-Up 0.1%, Potassium pelargonate 0.5%
[5] = Table 3 set 3: Round-Up 0.1%, Potassium pelargonate 0.5% (so in the source)

CCCCCCCCC(=O)[O-].[K+] [Potassium pelargonate]
Phytotoxicity (%) Observed (Avena sativa (oats); [3]): 6%
Phytotoxicity (%) Observed (Avena sativa (oats); [4]): 5%
Phytotoxicity (%) Observed (Avena sativa (oats); [5]): 7%
Phytotoxicity (%) Observed [1, 3]: 0%
Phytotoxicity (%) Observed [1, 4]: 0%
Phytotoxicity (%) Observed [1, 5]: 3%
Phytotoxicity (%) Observed [2, 3]: 0%
Phytotoxicity (%) Observed [2, 4]: 0%
Phytotoxicity (%) Observed [2, 5]: 2%
